Experimental data reported in PubChem BioAssay AID1963840 (Molecular Pharmacology Branch, DTP, NCI, 2024).

Tested on: 695427-040-R-J1-PDC complex spheroid viability
Test: Anticancer human tumor 695427-040-R-J1-PDC patient-derived colon adenocarcinoma cell line growth inhibition [POLQ]
Conditions: for IC50: curve of first compound; for viability, T/C: stronger effect = lower value
Procedure, shortened: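 Complex spheroid viability model combining PDC tumour cells with endothelial (HUVEC) and MSC stromal cells. Novobiocin, ART-558 or RP6685 were tested singly and in combination with standard and investigational anticancer drugs. Each was titrated in half-log steps from near clinical Cmax, or from 10 microM where Cmax was unknown.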

[1] = second compound 0.0316 µM, first compound 0.0316 µM
[2] = second compound 0.0316 µM, first compound 0.1 µM
[3] = second compound 0.0316 µM, first compound 0.316 µM
[4] = second compound 0.0316 µM, first compound 1 µM
[5] = second compound 0.0316 µM, first compound 3.16 µM
[6] = second compound 0.0316 µM, first compound 10 µM
[7] = second compound 0.1 µM, first compound 0.0316 µM
[8] = second compound 0.1 µM, first compound 0.1 µM
[9] = second compound 0.1 µM, first compound 0.316 µM
[10] = second compound 0.1 µM, first compound 1 µM
[11] = second compound 0.1 µM, first compound 3.16 µM
[12] = second compound 0.1 µM, first compound 10 µM
[13] = second compound 0.316 µM, first compound 0.0316 µM
[14] = second compound 0.316 µM, first compound 0.1 µM
[15] = second compound 0.316 µM, first compound 0.316 µM
[16] = second compound 0.316 µM, first compound 1 µM
[17] = second compound 0.316 µM, first compound 3.16 µM
[18] = second compound 0.316 µM, first compound 10 µM
[19] = second compound 1 µM, first compound 0.0316 µM
[20] = second compound 1 µM, first compound 0.1 µM
[21] = second compound 1 µM, first compound 0.316 µM
[22] = second compound 1 µM, first compound 1 µM
[23] = second compound 1 µM, first compound 3.16 µM
[24] = second compound 1 µM, first compound 10 µM
[25] = second compound 3.16 µM, first compound 0.0316 µM
[26] = second compound 3.16 µM, first compound 0.1 µM
[27] = second compound 3.16 µM, first compound 0.316 µM
[28] = second compound 3.16 µM, first compound 1 µM
[29] = second compound 3.16 µM, first compound 3.16 µM
[30] = second compound 3.16 µM, first compound 10 µM
[31] = second compound 10 µM, first compound 0.0316 µM
[32] = second compound 10 µM, first compound 0.1 µM
[33] = second compound 10 µM, first compound 0.316 µM
[34] = second compound 10 µM, first compound 1 µM
[35] = second compound 10 µM, first compound 3.16 µM
[36] = second compound 10 µM, first compound 10 µM
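Note: spheroids exposed to compounds for seven days.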
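Throughout, for viability, T/C: 100% = DMSO vehicle control viability.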

`CC1COCCN1c1cc(C2(O)CC3CCC(C2)O3)c2cnn(-c3ccn[nH]3)c2n1` (stereo not drawn) + COC1C(OC(N)=O)C(O)C(Oc2ccc3c(O)c(NC(=O)c4ccc(O)c(CC=C(C)C)c4)c(=O)oc3c2C)OC1(C)C gave an IC50 (second compound 0.0316 µM) of 3.94 µM, an IC50 (second compound 0.1 µM) of 4.71 µM and an IC50 (second compound 0.316 µM) of 5.84 µM. The IC50 (second compound 1 µM) was 4.12 µM, the IC50 (second compound 3.16 µM) was 4.5 µM and the IC50 (second compound 10 µM) was 4.12 µM. For the same compound, the viability, T/C [1] was 105%, the viability, T/C [2] was 86.8% and the viability, T/C [3] was 75.3%. It also gave a viability, T/C [4] of 64.9%, a viability, T/C [5] of 50.9% and a viability, T/C [6] of 41.9%. For the same compound, the viability, T/C [7] was 116%, the viability, T/C [8] was 88.6% and the viability, T/C [9] was 79.1%. The viability, T/C [10] was 61.5%, the viability, T/C [11] was 52.6% and the viability, T/C [12] was 44.9%. The viability, T/C [13] was 99.9%, the viability, T/C [14] was 84.7% and the viability, T/C [15] was 83.7%. The viability, T/C [16] was 71.2%, the viability, T/C [17] was 54.3% and the viability, T/C [18] was 44.6%. For the same compound, the viability, T/C [19] was 97.9%, the viability, T/C [20] was 91% and the viability, T/C [21] was 75.9%. For the same compound, the viability, T/C [22] was 64%, the viability, T/C [23] was 51% and the viability, T/C [24] was 45%. For the same compound, the viability, T/C [25] was 102%, the viability, T/C [26] was 91.2% and the viability, T/C [27] was 80%. For the same compound, the viability, T/C [28] was 62.6%, the viability, T/C [29] was 52.4% and the viability, T/C [30] was 45.3%. For the same compound, the viability, T/C [31] was 129%, the viability, T/C [32] was 91.8% and the viability, T/C [33] was 77.4%. The viability, T/C [34] was 63.9%, the viability, T/C [35] was 50.3% and the viability, T/C [36] was 44.6%.
`COc1cc(C2c3cc4c(cc3C(OC3OC5COC(C)OC5C(O)C3O)C3COC(=O)C23)OCO4)cc(OC)c1O` (stereo not drawn) + Cc1cccc(N(C)C(=O)C2C(O)CCN2c2nc(C)cc(C(F)(F)F)c2C#N)c1 was tested, and the IC50 (second compound 0.0316 µM) was greater than 10 µM, the IC50 (second compound 0.1 µM) was greater than 10 µM and the IC50 (second compound 0.316 µM) was greater than 10 µM. It also gave an IC50 (second compound 1 µM) greater than 10 µM, an IC50 (second compound 3.16 µM) greater than 10 µM and an IC50 (second compound 10 µM) greater than 10 µM. The viability, T/C [1] was 104%, the viability, T/C [2] was 89.7% and the viability, T/C [3] was 107%. The viability, T/C [4] was 108%, the viability, T/C [5] was 92.3% and the viability, T/C [6] was 81.3%. The viability, T/C [7] was 96.4%, the viability, T/C [8] was 92.6% and the viability, T/C [9] was 102%. For the same compound, the viability, T/C [10] was 93.4%, the viability, T/C [11] was 96.1% and the viability, T/C [12] was 84.7%. For the same compound, the viability, T/C [13] was 95.7%, the viability, T/C [14] was 89.8% and the viability, T/C [15] was 102%. For the same compound, the viability, T/C [16] was 89.8%, the viability, T/C [17] was 93.2% and the viability, T/C [18] was 81.9%. The viability, T/C [19] was 96.2%, the viability, T/C [20] was 98.7% and the viability, T/C [21] was 89.9%. It also gave a viability, T/C [22] of 87.9%, a viability, T/C [23] of 91.9% and a viability, T/C [24] of 77.1%. The viability, T/C [25] was 92.8%, the viability, T/C [26] was 102% and the viability, T/C [27] was 93.4%. The viability, T/C [28] was 91.5%, the viability, T/C [29] was 89.6% and the viability, T/C [30] was 80.8%. The viability, T/C [31] was 98%, the viability, T/C [32] was 80.5% and the viability, T/C [33] was 90%. It also gave a viability, T/C [34] of 86.8%, a viability, T/C [35] of 84.3% and a viability, T/C [36] of 71.1%.
With `COc1cccc2c1C(=O)c1c(O)c3c(c(O)c1C2=O)CC(O)(C(=O)CO)CC3OC1CC(N)C(O)C(C)O1` (stereo not drawn) + Cc1cccc(N(C)C(=O)C2C(O)CCN2c2nc(C)cc(C(F)(F)F)c2C#N)c1 the IC50 (second compound 0.0316 µM) was greater than 10 µM, the IC50 (second compound 0.1 µM) was greater than 10 µM and the IC50 (second compound 0.316 µM) was greater than 10 µM. The IC50 (second compound 1 µM) was greater than 10 µM, the IC50 (second compound 3.16 µM) was 8.57 µM and the IC50 (second compound 10 µM) was 4.41 µM. For the same compound, the viability, T/C [1] was 97.7%, the viability, T/C [2] was 96.5% and the viability, T/C [3] was 89.7%. The viability, T/C [4] was 75.1%, the viability, T/C [5] was 67.7% and the viability, T/C [6] was 51%. The viability, T/C [7] was 105%, the viability, T/C [8] was 88.3% and the viability, T/C [9] was 95.6%. It also gave a viability, T/C [10] of 69%, a viability, T/C [11] of 66.4% and a viability, T/C [12] of 55.9%. It also gave a viability, T/C [13] of 103%, a viability, T/C [14] of 91.8% and a viability, T/C [15] of 89.1%. The viability, T/C [16] was 72.1%, the viability, T/C [17] was 78.6% and the viability, T/C [18] was 55.7%. It also gave a viability, T/C [19] of 97.5%, a viability, T/C [20] of 83.1% and a viability, T/C [21] of 87.3%. For the same compound, the viability, T/C [22] was 75.2%, the viability, T/C [23] was 67.5% and the viability, T/C [24] was 53.9%. It also gave a viability, T/C [25] of 96.6%, a viability, T/C [26] of 87.9% and a viability, T/C [27] of 83.3%. The viability, T/C [28] was 75.7%, the viability, T/C [29] was 64.9% and the viability, T/C [30] was 46.8%. For the same compound, the viability, T/C [31] was 81.6%, the viability, T/C [32] was 78.9% and the viability, T/C [33] was 73.3%. For the same compound, the viability, T/C [34] was 57.7%, the viability, T/C [35] was 56.4% and the viability, T/C [36] was 41.8%.
Work on `O=c1[nH]cc(F)c(=O)[nH]1` + Cc1cccc(N(C)C(=O)C2C(O)CCN2c2nc(C)cc(C(F)(F)F)c2C#N)c1 yielded an IC50 (second compound 0.0316 µM) greater than 10 µM, an IC50 (second compound 0.1 µM) greater than 10 µM and an IC50 (second compound 0.316 µM) greater than 10 µM. It also gave an IC50 (second compound 1 µM) greater than 10 µM, an IC50 (second compound 3.16 µM) greater than 10 µM and an IC50 (second compound 10 µM) greater than 10 µM. It also gave a viability, T/C [1] of 105%, a viability, T/C [2] of 94.5% and a viability, T/C [3] of 95.2%. It also gave a viability, T/C [4] of 98.1%, a viability, T/C [5] of 106% and a viability, T/C [6] of 98.2%. The viability, T/C [7] was 106%, the viability, T/C [8] was 102% and the viability, T/C [9] was 102%. It also gave a viability, T/C [10] of 101%, a viability, T/C [11] of 109% and a viability, T/C [12] of 97%. It also gave a viability, T/C [13] of 112%, a viability, T/C [14] of 102% and a viability, T/C [15] of 99.1%. The viability, T/C [16] was 104%, the viability, T/C [17] was 101% and the viability, T/C [18] was 99.5%. It also gave a viability, T/C [19] of 105%, a viability, T/C [20] of 100% and a viability, T/C [21] of 108%. For the same compound, the viability, T/C [22] was 101%, the viability, T/C [23] was 93% and the viability, T/C [24] was 88.4%. For the same compound, the viability, T/C [25] was 96%, the viability, T/C [26] was 103% and the viability, T/C [27] was 101%. It also gave a viability, T/C [28] of 97.4%, a viability, T/C [29] of 101% and a viability, T/C [30] of 103%. The viability, T/C [31] was 90.6%, the viability, T/C [32] was 94.8% and the viability, T/C [33] was 87.5%. It also gave a viability, T/C [34] of 96.3%, a viability, T/C [35] of 92.8% and a viability, T/C [36] of 84.8%.
